Data reported in patent US20220144850A1, “INDOLO HEPTAMYL OXIME ANALOGUE AS PARP INHIBITOR” (Chia Tai Tianqing Pharmaceutical Group Co., Ltd., priority 2019, published 2022).

Tests used:
Assay type in all cases: in vitro ADME
[1] = Plasma protein binding rate, human plasma (equilibrium dialysis); conditions: dialysis 4 h at 37° C.
Experimental: (§1) Experimental Example 5: Study on Plasma Protein Binding Rate
(§2) The protein binding rates of the compounds disclosed herein in plasma of human, CD-1 mice and SD rats were determined. 796 μL of blank plasma was taken from human, CD-1 mice and SD rats, and added with 4 μL of test compound working solution (400. μM) or warfarin working solution (400 μM) to achieve a final concentration of 2 μM of both the test compound and the warfarin in the plasma sample. The samples were mixed well. The final concentration of organic phase DMSO was 0.5%; 50 μL of test compound and warfarin plasma sample was pipetted into a sample receiving plate (three parallels), and a corresponding volume of blank plasma or buffer was immediately added such that the final volume of each sample well was 100 μL. The volume ratio of plasma to dialysis buffer was 1:1, and 400 μL of stop solution was added to these samples, which were used as TO samples for determination of recovery rate and stability. The TO samples were stored at 2-8° C. for subsequent treatment with other dialyzed samples; 150 μL of the test compound and warfarin plasma sample was added to a drug delivery end of each dialysis well, and 150 μL of blank dialysis buffer was added to a corresponding receiving end of the dialysis well. The dialysis plate was then sealed with a gas permeable membrane and placed in a humid, 5% CO2 incubator and incubated at 37° C. for 4 h while shaking at about 100 rpm. After the dialysis was completed, 50 μL of the dialyzed buffer sample and dialyzed plasma sample were pipetted to a new sample receiving plate. A corresponding volume of corresponding blank plasma or buffer was added to the samples such that the final volume of each sample well was 100 μL, and the volume ratio of plasma to dialysis buffer was 1:1. All samples were subjected to LC/MS analysis after protein precipitation, and the protein binding rates and the recovery rates were calculated by the following formulas: protein unbinding rate (%)=100×drug concentration passing through dialysis membrane/drug concentration not passing through dialysate; protein binding rate (%)=100−protein unbinding rate (%); recovery rate (%)=100×(drug concentration passing through dialysis membrane+drug concentration not passing through dialysate)/total drug concentration before dialysis.

[2] = Plasma protein binding rate, CD-1 mouse plasma (equilibrium dialysis); conditions: CD-1 mice plasma, dialysis 4 h at 37° C.
Experimental: as §1, §2

[3] = Plasma protein binding rate, SD rat plasma (equilibrium dialysis); conditions: Sprague-Dawley, SD rats plasma, dialysis 4 h at 37° C.
Experimental: as §1, §2

CYP1A2 = target: T1, CYP1A2 (Homo sapiens, UniProt P05177); test: Inhibition against cytochrome P450 isoenzyme, human liver microsomes
T1 construct: a human liver microsome solution; from tissue; host or cells: human liver microsomes
T1 sequence (P05177 1-516): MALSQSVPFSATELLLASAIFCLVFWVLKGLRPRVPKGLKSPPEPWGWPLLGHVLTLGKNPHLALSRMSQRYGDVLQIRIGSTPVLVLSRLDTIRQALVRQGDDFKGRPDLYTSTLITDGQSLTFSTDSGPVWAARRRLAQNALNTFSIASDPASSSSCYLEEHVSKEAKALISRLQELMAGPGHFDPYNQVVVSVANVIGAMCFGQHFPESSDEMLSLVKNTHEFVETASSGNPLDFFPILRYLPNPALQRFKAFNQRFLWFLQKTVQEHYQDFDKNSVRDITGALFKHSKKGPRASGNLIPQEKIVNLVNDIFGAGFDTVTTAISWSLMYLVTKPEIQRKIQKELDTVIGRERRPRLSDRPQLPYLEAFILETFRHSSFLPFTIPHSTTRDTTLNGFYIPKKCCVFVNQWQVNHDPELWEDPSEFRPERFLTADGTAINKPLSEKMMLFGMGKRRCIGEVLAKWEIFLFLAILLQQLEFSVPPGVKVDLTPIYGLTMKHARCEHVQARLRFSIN
Experimental: (§3) Experimental Example 6: Study on Inhibition Against Cytochrome P450 Isoenzyme
(§4) The inhibition of the test compounds against different subtypes of the human cytochrome P450 isoenzyme was determined. Test compounds, a standard inhibitor (100×final concentration) and a mixed substrate working solution were prepared; the microsomes frozen in a refrigerator at −80° C. were taken out and thawed. 2 μL of a solution of the test compound and the standard inhibitor was added to corresponding wells, and 2 μL of a corresponding solvent was added to a non-inhibitor control (NIC) well and a blank control (Blank) well; then, 20 μL of a solution of mixed substrate was added to corresponding wells except for the Blank well (adding 20 μL of PB to the Blank well); a human liver microsome solution (marking the date after use and immediately putting back to a refrigerator) was prepared and then added to all wells at 158 μL per well; the sample plate was put into a 37° C. water bath for pre-incubation, and then a coenzyme factor (NADPH) solution was prepared; after 10 min, the NADPH solution was added to all the wells at 20 μL per well, and the sample plate was shaken to mix the mixture well and then incubated in a 37° C. water bath for 10 min; at corresponding time points, 400 μL of cold acetonitrile solution (internal standard: 200 ng/mL tolbutamide and labetalol) was added to stop the reaction; after being mixed well, the mixture in the sample plate was centrifuged at 4,000 rpm for 20 min to precipitate proteins; 200 μL of supernatant was collected and added into 100 μL of water, and the mixture was mixed well and then assayed by LC/MS/MS.

CYP2C19 = target: T2, CYP2C19 (Homo sapiens, UniProt P33261); test: as above
T2 construct: a human liver microsome solution; from tissue; host or cells: human liver microsomes
T2 sequence (P33261 whole entry): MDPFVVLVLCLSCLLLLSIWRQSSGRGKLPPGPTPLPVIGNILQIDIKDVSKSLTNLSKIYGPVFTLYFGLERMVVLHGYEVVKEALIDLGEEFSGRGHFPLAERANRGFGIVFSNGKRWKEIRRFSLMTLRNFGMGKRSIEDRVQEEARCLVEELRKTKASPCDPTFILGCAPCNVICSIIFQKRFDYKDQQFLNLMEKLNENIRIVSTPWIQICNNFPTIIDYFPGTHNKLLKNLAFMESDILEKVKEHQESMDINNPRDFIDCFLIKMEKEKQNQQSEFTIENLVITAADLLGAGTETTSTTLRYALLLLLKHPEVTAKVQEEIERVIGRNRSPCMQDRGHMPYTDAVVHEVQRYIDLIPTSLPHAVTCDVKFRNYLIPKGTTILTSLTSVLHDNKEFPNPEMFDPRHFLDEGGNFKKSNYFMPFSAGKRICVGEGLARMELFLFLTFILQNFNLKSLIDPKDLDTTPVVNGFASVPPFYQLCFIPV
Experimental: as §3, §4

CYP2C9 = target: T3, CYP2C9 (Homo sapiens, UniProt P11712); test: as above
T3 construct: a human liver microsome solution; from tissue; host or cells: human liver microsomes
T3 sequence (P11712 whole entry): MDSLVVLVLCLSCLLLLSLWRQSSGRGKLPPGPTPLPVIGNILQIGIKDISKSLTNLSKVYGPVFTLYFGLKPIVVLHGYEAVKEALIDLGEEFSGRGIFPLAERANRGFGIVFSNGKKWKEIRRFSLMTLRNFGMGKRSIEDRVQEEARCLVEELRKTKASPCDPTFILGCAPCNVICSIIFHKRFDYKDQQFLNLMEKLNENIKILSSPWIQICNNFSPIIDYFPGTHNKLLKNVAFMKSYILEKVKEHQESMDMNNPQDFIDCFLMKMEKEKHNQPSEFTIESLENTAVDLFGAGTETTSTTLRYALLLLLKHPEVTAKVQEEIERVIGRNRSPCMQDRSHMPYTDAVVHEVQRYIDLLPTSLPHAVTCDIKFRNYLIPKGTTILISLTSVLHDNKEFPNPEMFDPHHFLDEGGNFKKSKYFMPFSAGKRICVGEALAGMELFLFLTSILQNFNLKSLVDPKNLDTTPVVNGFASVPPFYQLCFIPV
Experimental: as §3, §4

CYP2D6 = target: T4, CYP2D6 (Homo sapiens, UniProt P10635); test: as above
T4 construct: a human liver microsome solution; from tissue; host or cells: human liver microsomes
T4 sequence (P10635 whole entry): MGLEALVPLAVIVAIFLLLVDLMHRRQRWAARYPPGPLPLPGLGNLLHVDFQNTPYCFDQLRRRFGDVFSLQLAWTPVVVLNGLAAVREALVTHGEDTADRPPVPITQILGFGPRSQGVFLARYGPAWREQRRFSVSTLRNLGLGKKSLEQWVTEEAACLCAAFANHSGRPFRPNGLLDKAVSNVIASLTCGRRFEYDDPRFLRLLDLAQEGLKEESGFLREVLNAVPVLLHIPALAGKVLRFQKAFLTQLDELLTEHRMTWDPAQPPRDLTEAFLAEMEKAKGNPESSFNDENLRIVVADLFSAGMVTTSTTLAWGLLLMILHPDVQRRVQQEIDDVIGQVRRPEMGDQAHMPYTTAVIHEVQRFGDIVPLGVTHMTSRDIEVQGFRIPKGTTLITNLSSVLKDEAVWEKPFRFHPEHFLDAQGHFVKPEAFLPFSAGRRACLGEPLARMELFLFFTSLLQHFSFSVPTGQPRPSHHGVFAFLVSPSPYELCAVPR
Experimental: as §3, §4

CYP3A4-M = target: T5, CYP3A4-M (Homo sapiens, UniProt P08684); test: as above
T5 construct: a human liver microsome solution; from tissue; host or cells: human liver microsomes
T5 sequence (P08684 whole entry): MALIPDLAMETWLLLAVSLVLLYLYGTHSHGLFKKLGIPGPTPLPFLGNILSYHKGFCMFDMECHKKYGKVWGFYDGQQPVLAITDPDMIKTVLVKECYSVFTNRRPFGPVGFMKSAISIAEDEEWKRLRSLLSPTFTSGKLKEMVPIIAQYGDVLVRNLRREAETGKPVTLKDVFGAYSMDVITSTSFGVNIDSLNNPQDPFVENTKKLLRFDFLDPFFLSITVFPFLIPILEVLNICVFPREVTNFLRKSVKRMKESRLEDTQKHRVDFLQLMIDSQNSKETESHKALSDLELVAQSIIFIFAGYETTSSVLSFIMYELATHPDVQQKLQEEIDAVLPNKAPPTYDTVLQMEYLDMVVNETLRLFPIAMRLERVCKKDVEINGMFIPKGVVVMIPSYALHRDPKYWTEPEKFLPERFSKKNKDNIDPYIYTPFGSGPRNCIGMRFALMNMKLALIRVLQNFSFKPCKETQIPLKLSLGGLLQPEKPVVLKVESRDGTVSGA
Experimental: as §3, §4

[4] = Metabolic stability in liver microsomes, rat; conditions: Rat liver microsomes 0.5 mg/mL, 1 μM compound, NADPH, 37° C.
Experimental: Experimental Example 7. Metabolic Stability in Liver Microsomes
Experimental objective: to test the metabolic stability of test compounds in liver microsomes of three species.
Experimental method: 1 μM test compound and a microsome (0.5 mg/mL) were incubated at 37° C. in the presence of an NADPH regeneration system; positive controls were testosterone (3A4 substrate), propylamine propiophenone (2D6 substrate) and diclofenac (2C9 substrate), and also at 37° C., a positive control was incubated with a microsome (0.5 mg/mL) in the presence of an NADPH regenerating system; the reaction was stopped by direct mixing of the sample with cold acetonitrile containing an internal standard at various time points (0, 5, 10, 20, 30 and 60 min); the compound and microsome were incubated for 60 min in the absence of an NADPH regenerating system; one parallel (n=1) was set at each time point; the samples were analyzed by LC/MS/MS; the concentration of the compound was characterized by the ratio of the analyte peak area to the internal standard peak area.

Row | SMILES | fraction unbound at 4 h, 2 μM [1] | fraction unbound at 4 h, 2 μM [2] | fraction unbound at 4 h, 2 μM [3] | IC50 (CYP1A2) [µM] | IC50 (CYP2C19) [µM] | IC50 (CYP2C9) [µM] | IC50 (CYP2D6) [µM] | IC50 (CYP3A4-M) [µM] | Residual content after 60 min of incubation [4] [%]
1 | O=C1NOCc2c(-c3ccc(C4CCCN4)cc3)[nH]c3cc(F)cc1c23 (single isomer, unassigned) [Example 24_A] | 0.073 | 0.037 | 0.036 | 29.5 | 17.2 | > 50 | 6.98 | > 50 | 60.6
2 | CC1(c2ccc(-c3[nH]c4cc(F)cc5c4c3CONC5=O)cc2F)CCCN1 (single isomer, unassigned) [Example 26_A] | 0.057 | 0.08 | 0.097 | > 50 | 3.31 | 49.7 | 20.2 | 14.1 | 34.5
3 | CC1(c2ccc(-c3[nH]c4cccc5c4c3CONC5=O)cc2)CCCN1 (stereo not shown) [Example 6_A] | 0.181 | 0.208 | 0.176 | – | – | – | – | – | 55.4
4 | O=C1NOCc2c(-c3ccc(C4CCCN4)c(F)c3)[nH]c3cccc1c23 (stereo not shown) [Example 11_A] | 0.235 | 0.101 | 0.035 | > 50 | 15.5 | > 50 | 19.2 | 35 | 58.1
5 | CC1(c2ccc(-c3[nH]c4cc(F)cc5c4c3CONC5=O)cc2)CCCN1 (stereo not shown) [Example 25_A] | 0.149 | 0.104 | 0.077 | > 50 | 8.33 | > 50 | 11.6 | 32.9 | 31.8
